{"source": "ChEMBL document CHEMBL1201862", "about": "“PubChem BioAssay data set” (2004)", "key": {"[1]": {"assay": "Dd2 parasite growth inhibition in erythrocytes – SYBR Green, dry powder samples, set 9, dose response (AID 1159568)", "type": "functional, cell-based"}, "[2]": {"biological_target": "T1, Oxysterols receptor LXR-beta (Homo sapiens, UniProt P55055)", "T1 sequence (P55055 whole entry)": "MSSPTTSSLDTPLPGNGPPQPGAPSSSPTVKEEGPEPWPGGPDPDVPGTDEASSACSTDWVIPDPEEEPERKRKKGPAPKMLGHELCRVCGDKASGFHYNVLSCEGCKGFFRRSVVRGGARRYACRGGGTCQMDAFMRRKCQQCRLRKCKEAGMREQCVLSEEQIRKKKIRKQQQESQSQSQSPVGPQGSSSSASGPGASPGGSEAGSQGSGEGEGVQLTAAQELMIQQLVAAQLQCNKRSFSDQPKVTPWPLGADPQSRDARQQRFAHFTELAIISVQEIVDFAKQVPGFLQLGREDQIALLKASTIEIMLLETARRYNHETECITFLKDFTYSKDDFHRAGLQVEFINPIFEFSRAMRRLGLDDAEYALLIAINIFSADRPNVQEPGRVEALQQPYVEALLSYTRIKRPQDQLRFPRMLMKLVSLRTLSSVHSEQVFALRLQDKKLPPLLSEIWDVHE", "type": "functional, cell-based"}, "[3]": {"assay": "NIH3T3 cell viability loss – ATP luminescence, mouse fibroblasts, counter-screen, dose response (AID 2010);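 also: cells exposed to compound for about 90 hours before reading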", "type": "functional, cell-based"}, "[4]": {"assay": "Luminescence Cell-Based Secondary HTS screen to identify cytotoxic compounds of NIH3T3 cells. [Related pubchem assays: 1885, 1968 ]", "type": "functional"}, "[5]": {"assay": "Trypanosoma cruzi growth suppression in host cells – NIH3T3 host cells, beta-gal luminescence, confirmation (AID 2044);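 also: luminescent beta-galactosidase reporter signal from transgenic T. cruzi replicating inside host cells; inhibitors lower the luminescence signal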", "type": "functional, cell-based"}, "[6]": {"biological_target": "Endoplasmic reticulum aminopeptidase 1 (Homo sapiens, UniProt Q9NZ08)", "sequence (Q9NZ08 whole entry)": "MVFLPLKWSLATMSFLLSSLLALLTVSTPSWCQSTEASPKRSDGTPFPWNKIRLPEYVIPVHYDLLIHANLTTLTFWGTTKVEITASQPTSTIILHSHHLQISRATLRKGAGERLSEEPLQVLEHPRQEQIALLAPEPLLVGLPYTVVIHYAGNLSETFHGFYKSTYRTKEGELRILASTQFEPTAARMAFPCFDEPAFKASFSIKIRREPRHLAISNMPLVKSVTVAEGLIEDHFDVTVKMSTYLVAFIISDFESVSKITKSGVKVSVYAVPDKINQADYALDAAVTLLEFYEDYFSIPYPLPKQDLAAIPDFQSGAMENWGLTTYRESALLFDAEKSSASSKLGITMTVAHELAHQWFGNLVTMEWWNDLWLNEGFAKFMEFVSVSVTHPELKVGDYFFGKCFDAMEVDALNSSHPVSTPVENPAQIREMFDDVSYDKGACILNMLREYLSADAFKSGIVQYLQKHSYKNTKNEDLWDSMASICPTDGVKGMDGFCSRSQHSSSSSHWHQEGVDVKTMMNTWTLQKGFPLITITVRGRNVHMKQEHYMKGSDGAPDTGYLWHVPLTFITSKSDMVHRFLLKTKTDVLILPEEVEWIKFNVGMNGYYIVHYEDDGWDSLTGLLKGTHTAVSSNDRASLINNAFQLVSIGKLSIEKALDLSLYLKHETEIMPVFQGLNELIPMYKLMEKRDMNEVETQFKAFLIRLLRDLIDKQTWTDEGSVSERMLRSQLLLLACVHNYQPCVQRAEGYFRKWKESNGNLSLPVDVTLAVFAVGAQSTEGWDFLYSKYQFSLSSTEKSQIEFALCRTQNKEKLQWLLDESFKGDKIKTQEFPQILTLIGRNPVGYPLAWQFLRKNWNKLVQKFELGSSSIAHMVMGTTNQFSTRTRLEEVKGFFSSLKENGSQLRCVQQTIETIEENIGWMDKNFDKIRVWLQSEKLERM", "assay": "inhibition of human ERAP1 enzyme activity – biochemical, cherry-pick, set 2, plate reader, dose response (AID 743314)"}, "Genome polyprotein": {"biological_target": "Genome polyprotein (Hepatitis C virus, UniProt Q2Q167)", "sequence (Q2Q167 whole entry)": "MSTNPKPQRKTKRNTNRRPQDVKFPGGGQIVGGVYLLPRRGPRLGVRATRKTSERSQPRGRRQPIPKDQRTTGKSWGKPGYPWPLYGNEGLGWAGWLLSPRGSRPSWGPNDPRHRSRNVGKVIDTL", "assay": "disruption of hepatitis C core self-association – biochemical, TR-FRET, dose response (AID 2159);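 also: blocks dimerization of HCV core protein measured by TR-FRET between tagged core106 pairs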", "parameters": "species or system Hepacivirus hominis"}, "[7]": {"assay": "inhibition of ADAM10 peptide cleavage – biochemical, FRET peptide substrate, recombinant human ADAM10, selectivity assay for ADAM17 exosite inhibitor project, dose response (AID 743259)"}, "[8]": {"biological_target": "Disintegrin and metalloproteinase domain-containing protein 17 (Homo sapiens, UniProt P78536)", "sequence (P78536 whole entry, the tested form may be a part)": "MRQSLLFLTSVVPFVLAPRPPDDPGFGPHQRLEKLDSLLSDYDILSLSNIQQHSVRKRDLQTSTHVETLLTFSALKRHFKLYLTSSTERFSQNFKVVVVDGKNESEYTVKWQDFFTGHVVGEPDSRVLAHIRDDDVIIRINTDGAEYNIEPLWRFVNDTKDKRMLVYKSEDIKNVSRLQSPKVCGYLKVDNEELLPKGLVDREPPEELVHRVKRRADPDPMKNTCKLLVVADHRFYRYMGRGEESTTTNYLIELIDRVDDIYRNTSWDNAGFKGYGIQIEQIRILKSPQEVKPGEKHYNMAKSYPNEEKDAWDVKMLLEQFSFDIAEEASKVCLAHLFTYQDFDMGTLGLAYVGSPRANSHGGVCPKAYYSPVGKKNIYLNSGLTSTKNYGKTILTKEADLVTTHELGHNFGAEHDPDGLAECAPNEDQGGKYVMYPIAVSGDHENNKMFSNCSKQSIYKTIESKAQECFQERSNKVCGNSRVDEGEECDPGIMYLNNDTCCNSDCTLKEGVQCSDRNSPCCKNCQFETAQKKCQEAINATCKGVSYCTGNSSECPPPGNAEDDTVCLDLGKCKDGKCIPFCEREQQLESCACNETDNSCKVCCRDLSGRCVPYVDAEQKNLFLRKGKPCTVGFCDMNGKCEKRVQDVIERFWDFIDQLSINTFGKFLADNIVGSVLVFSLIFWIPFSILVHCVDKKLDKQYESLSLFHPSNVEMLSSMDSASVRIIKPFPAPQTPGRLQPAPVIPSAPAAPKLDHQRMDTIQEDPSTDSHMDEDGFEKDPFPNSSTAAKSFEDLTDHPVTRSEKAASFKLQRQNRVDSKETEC", "assay": "exosite inhibitors of ADAM17, dose response, biochemical (AID 743260)"}, "[9]": {"assay": "Trypanosoma cruzi replication inhibitors in host cells – cell-based, plate reader, dry powder samples, dose response (AID 651845)", "type": "functional"}, "[10]": {"assay": "anti-trypanosomal activity in BESM host cells – imaging, CA-I/72 strain, bovine embryo skeletal muscle, dry powder, dose response (AID 651885)", "type": "functional, cell-based"}, "[11]": {"assay": "Potency on glucagon-like peptide 1 release, dose-response in NCI-H716 cell line, half maximal inhibitory concentration (AID 1117344)", "type": "functional, cell-based"}, "[12]": {"assay": "glucagon-like peptide-1 release potency in STC-1, concentration-response, half-maximal inhibitory concentration in the STC-1 line (AID 1117345)", "type": "functional, cell-based"}, "Estrogen receptor beta": {"biological_target": "Estrogen receptor beta (Homo sapiens, UniProt Q92731)", "sequence (Q92731 whole entry)": "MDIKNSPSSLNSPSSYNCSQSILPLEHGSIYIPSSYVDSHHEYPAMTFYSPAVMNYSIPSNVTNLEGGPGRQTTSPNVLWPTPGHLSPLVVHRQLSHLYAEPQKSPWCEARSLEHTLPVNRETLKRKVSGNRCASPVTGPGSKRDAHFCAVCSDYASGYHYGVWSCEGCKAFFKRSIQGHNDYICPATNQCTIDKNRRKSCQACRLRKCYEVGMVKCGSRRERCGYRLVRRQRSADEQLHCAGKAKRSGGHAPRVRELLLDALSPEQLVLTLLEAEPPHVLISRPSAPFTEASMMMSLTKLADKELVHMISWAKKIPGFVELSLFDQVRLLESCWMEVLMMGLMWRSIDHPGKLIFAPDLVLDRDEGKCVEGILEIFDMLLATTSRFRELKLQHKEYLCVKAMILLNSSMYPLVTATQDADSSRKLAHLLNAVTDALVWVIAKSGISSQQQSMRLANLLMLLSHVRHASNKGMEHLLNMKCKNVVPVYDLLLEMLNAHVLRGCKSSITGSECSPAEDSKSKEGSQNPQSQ"}, "[13]": {"assay": "COV362 cell viability loss – plate reader, dry powder, SA12, cytotoxicity control for PAX8 inhibitor project, dose response (AID 743144)", "type": "functional, cell-based"}, "[14]": {"assay": "inhibitors acting on PAX2 in cells – cell-based, plate reader, dry powder samples, selectivity assay for PAX8 inhibitor project, dose response (AID 743048);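 also: HEK293 cells carrying a WT1 promoter luciferase reporter driven by expressed Pax2; potency is for inhibition of Pax2 driven reporter signal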", "type": "functional"}, "[15]": {"assay": "OVCAR-3 cell viability loss – plate reader, dry powder samples, PAX8 inhibitor project, dose response (AID 743044)", "type": "functional, cell-based"}, "[16]": {"assay": "COV434 cell viability loss – plate reader, dry powder, SA7, cytotoxicity control for PAX8 inhibitor project, dose response (AID 743145)", "type": "functional, cell-based"}, "Paired box protein Pax-8": {"biological_target": "Paired box protein Pax-8 (Homo sapiens, UniProt Q06710)", "sequence (Q06710 whole entry)": "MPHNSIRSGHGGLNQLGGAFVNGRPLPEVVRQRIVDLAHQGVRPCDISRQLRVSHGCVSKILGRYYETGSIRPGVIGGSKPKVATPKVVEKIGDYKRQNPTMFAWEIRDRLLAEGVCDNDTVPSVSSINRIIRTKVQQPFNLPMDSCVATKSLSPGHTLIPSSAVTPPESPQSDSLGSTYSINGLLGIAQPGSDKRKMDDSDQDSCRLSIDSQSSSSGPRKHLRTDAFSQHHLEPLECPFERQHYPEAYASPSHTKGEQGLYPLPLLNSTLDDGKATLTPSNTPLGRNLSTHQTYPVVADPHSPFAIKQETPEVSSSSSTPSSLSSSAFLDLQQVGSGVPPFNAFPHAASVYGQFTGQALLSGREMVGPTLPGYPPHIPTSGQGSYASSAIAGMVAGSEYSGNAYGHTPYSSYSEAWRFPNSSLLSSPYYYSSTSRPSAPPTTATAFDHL", "assay": "PAX8 transcriptional activity inhibition in RMG-I – RMG-I cells, luciferase, cherry-pick, dose response (AID 687027);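 also: luciferase reporter driven by Pax8 target thyroperoxidase promoter measured by SteadyGlo luminescence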", "type": "functional, cell-based"}, "[17]": {"assay": "OV-90 cell viability loss – plate reader, dry powder, SA8, PAX8 inhibitor project, dose response (AID 743149)", "type": "functional, cell-based"}, "[18]": {"assay": "PAX5 cellular inhibition readout – cell-based, plate reader, dry powder samples, selectivity assay for PAX8 inhibitor project, dose response (AID 743047);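 also: HEK293 cells carrying a Pax5 driven CD19 promoter luciferase reporter; potency of inhibitors that lower reporter luminescence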", "type": "functional"}, "[19]": {"assay": "PAX8-dependent cell viability loss – plate reader, dry powder, dose response (AID 743049)", "type": "functional, cell-based"}}, "note": "Activity calls are given as the source filed them."}
{"smiles": "C[C@H]1CN([C@@H](C)CO)C(=O)c2cccc(NC(=O)c3ccc(-c4nccs4)cc3)c2O[C@@H]1CN(C)C(=O)Nc1ccc(C(F)(F)F)cc1", "values": [{"measurement": "AC50", "setting": "[1]", "result": "9.87 µM (active)"}]}
{"smiles": "Oc1cccc(-c2nnc(-c3cccc(O)c3)nn2)c1", "values": [{"measurement": "EC50", "setting": "[2]", "result": "> 67.6 µM (inactive)"}, {"measurement": "EC50", "setting": "cells", "result": "> 67.6 µM (inactive)"}]}
{"smiles": "COCc1cc(CN2CCCC(CNC(=O)c3ccc(F)cc3)C2)ccc1OC", "note": "(stereo not drawn)", "values": [{"measurement": "EC50", "setting": "[3]", "result": "> 60 µM (not active)"}, {"measurement": "EC50", "setting": "[4]", "result": "> 195 µM (not active)"}, {"measurement": "EC50", "setting": "[5]", "result": "0.118 µM (active)"}]}
{"smiles": "CCNC(=O)[C@H]1[C@H](CO)[C@H]2Cn3c(ccc(/C=C/c4ccccc4)c3=O)[C@@H]1N2C(=O)C1CCCC1", "values": [{"measurement": "AC50", "setting": "[6]", "result": "7.81 µM (active)"}]}
{"smiles": "O=[N+]([O-])c1ccc(Cl)c2c1C1C=CCC1C(c1ccccn1)N2", "note": "(stereo not drawn)", "values": [{"measurement": "IC50", "setting": "Genome polyprotein", "result": "> 49.8 µM (not active)"}]}
{"smiles": "Cc1ccc(S(=O)(=O)N2C[C@H]3C(=O)C[C@@H](c4ccccc4)N(S(=O)(=O)c4ccc(C)cc4)[C@H]3C[C@H]2c2cccc3ccccc23)cc1", "values": [{"measurement": "IC50", "setting": "[7]", "result": "> 69.5 µM (inactive)"}, {"measurement": "IC50", "setting": "[8]", "result": "> 69.5 µM (inactive)"}]}
{"smiles": "C[C@@H]1CN([C@@H](C)CO)C(=O)c2cccc(NC(=O)c3ccncc3)c2O[C@H]1CN(C)Cc1ccccc1Cl", "values": [{"measurement": "AC50", "setting": "[9]", "result": "0.158 µM (active)"}, {"measurement": "IC50", "setting": "[10]", "result": "0.0114 µM (active)"}]}
{"smiles": "COc1cc(Nc2c(C#N)cnc3cc(OCCCN4CCN(C)CC4)c(OC)cc23)c(Cl)cc1Cl", "values": [{"measurement": "IC50", "setting": "[11]", "result": "25.1 µM (inactive)"}, {"measurement": "IC50", "setting": "[12]", "result": "> 40 µM (inactive)"}]}
{"smiles": "CCC(=O)Nc1ccc(C(=O)Cn2nc(C(=O)O)c3ccccc3c2=O)cc1", "values": [{"measurement": "IC50", "setting": "Estrogen receptor beta", "result": "5.09 µM (active)"}]}
{"smiles": "Cc1ccc(S(=O)(=O)Nc2ccc3c(c2)C(=O)N([C@@H](C)CO)C[C@H](C)[C@@H](CN(C)C(=O)Nc2cccc4ccccc24)OCCCC[C@@H](C)O3)cc1", "values": [{"measurement": "AC50", "setting": "[13]", "result": "37.3 µM (active)"}, {"measurement": "AC50", "setting": "[14]", "result": "7.25 µM (active)"}, {"measurement": "AC50", "setting": "[15]", "result": "13.3 µM (active)"}, {"measurement": "AC50", "setting": "[16]", "result": "0.0021 µM (active)"}, {"measurement": "AC50", "setting": "Paired box protein Pax-8", "result": "4.15 µM (active)"}, {"measurement": "AC50", "setting": "[17]", "result": "22.8 µM (active)"}, {"measurement": "AC50", "setting": "[18]", "result": "8.21 µM (active)"}, {"measurement": "AC50", "setting": "[19]", "result": "18.2 µM (active)"}]}
